# Experimental data published in US20030170730A1, “Assay method, peptides and reagent kits for testing mrp-specific inhibitors” (priority 2000, published 2003).
# Tests used:
# MRP1 variants = MRP1 variants (Homo sapiens, UniProt P33527); experiment: Vanadate-dependent nucleotide trapping by MRP1 variants in Sf9 membranes; settings: pretreatment with 1 mM
# MRP1-MDR1 chimeras = assay type: biochemical, human; settings: pretreatment with 1 mM
# Method: (§1) The filters were washed twice with 0.5 ml of cold transport buffer, and filter-bound radioactivity was measured in scintillation fluid (Optifluor, Packard). ATP-dependent transport was calculated by subtracting the activity values obtained with AMP from those in the presence of ATP.
# Covalent photoaffinty labeling of the proteins was performed with Mg-8-azido-[α-^32P)-ATP in the presence of vanadate as a trapping agent (set Materials and Methods).
# [1] = tested on: murine and human cells expressing MRP; settings: cited from earlier work
# co-expressed ΔMRP1+L0 = co-expressed ΔMRP1+L0 (Homo sapiens, UniProt P33527); experiment: ATP-dependent tracer (LTC4, NEM-GS) uptake in Sf9 membrane vesicles containing co-expressed ΔMRP1 and L0; settings: read-out: Km for transport of NEM-GS
# Chain of co-expressed ΔMRP1+L0 (P33527 281-1531, stated change not applied): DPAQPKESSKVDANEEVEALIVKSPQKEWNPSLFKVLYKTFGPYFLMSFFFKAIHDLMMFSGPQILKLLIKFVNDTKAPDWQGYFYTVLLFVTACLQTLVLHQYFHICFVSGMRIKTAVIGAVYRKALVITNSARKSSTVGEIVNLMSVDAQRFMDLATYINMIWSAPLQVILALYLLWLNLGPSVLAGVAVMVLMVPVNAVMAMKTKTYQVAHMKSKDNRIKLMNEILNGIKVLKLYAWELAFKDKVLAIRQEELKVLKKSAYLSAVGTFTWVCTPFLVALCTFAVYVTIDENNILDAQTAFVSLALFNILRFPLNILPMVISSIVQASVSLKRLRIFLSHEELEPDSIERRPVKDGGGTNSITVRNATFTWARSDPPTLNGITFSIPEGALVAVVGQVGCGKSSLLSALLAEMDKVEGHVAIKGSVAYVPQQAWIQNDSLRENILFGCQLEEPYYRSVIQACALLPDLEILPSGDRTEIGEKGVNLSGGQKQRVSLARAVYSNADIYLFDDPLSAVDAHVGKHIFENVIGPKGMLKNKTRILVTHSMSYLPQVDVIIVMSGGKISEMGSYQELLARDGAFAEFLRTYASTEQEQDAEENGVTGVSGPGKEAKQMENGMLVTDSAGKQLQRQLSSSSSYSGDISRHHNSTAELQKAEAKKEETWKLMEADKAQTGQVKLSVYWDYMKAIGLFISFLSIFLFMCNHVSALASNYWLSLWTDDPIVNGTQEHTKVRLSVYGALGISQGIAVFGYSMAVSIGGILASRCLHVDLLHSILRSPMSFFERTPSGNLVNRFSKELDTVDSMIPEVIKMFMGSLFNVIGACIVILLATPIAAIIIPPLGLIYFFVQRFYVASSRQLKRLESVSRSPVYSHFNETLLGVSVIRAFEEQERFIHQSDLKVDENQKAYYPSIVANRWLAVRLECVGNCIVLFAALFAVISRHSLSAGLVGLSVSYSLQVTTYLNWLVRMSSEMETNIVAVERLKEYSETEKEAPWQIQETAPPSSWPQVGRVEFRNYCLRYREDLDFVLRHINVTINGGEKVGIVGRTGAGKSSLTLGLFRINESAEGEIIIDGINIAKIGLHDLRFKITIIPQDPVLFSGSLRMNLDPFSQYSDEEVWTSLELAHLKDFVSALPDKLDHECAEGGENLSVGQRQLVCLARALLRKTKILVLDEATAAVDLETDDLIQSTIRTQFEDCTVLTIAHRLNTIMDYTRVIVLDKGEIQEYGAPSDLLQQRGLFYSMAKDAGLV
# Chain of co-expressed ΔMRP1+L0 (P33527 204-281, stated change not applied): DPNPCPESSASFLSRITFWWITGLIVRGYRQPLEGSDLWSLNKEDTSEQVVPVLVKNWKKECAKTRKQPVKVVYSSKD
# Method: as §1
# MRP1 = MRP1 (Homo sapiens, UniProt P33527); experiment: ATP-dependent tracer (LTC4, NEM-GS) uptake in Sf9 membrane vesicles containing MRP1; settings: 37° C.
# Chain of MRP1 (P33527 whole entry): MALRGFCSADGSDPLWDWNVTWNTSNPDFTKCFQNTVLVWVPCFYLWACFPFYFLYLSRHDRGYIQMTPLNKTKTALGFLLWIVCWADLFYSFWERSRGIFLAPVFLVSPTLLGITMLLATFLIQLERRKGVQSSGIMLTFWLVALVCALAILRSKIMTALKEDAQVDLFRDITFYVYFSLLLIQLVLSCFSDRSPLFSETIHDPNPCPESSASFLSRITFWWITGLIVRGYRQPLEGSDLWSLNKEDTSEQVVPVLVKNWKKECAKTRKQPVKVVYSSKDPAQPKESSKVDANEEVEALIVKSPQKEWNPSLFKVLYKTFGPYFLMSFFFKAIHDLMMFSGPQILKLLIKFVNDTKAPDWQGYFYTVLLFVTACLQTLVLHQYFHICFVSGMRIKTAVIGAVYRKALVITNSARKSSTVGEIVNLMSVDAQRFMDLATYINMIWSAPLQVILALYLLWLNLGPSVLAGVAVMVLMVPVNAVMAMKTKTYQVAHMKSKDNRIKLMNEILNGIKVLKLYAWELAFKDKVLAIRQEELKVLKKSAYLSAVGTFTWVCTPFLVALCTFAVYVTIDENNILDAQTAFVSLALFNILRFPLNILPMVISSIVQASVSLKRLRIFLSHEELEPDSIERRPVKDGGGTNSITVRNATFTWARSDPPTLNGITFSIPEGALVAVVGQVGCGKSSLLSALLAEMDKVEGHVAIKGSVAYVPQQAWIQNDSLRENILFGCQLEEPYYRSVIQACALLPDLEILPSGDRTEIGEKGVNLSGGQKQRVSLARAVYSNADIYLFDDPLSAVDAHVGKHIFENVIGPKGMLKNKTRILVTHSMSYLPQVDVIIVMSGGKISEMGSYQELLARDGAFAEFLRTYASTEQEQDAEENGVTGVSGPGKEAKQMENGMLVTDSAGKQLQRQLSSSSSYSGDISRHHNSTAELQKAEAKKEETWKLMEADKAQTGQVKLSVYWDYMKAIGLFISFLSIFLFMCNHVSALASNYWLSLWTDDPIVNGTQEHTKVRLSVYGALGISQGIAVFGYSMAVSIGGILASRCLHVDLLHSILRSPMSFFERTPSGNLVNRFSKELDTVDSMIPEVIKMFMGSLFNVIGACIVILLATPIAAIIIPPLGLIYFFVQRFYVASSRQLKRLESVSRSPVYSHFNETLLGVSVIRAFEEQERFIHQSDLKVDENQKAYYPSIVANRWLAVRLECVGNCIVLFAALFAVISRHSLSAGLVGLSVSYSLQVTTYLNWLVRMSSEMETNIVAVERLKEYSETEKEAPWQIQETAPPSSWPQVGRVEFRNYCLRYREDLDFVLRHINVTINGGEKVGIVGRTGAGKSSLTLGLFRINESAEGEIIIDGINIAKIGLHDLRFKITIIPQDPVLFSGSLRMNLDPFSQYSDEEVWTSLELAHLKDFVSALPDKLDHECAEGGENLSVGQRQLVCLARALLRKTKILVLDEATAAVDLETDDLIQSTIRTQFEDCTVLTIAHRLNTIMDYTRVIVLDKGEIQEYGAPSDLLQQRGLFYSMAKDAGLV
# Method: as §1
# Chain of MRP1 variants (P33527 281-1531): as the sequence (P33527 281-1531, stated change not applied) above
# Chain of MRP1 variants (P33527 with tags, fused parts or gaps): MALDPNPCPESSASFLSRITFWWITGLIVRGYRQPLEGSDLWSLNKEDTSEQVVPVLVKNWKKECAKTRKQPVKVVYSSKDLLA
smiles,measurement,setting,value
CCN1C(=O)C=CC1=O [N-ethylmaleimide],inhibition of nucleotide trapping,MRP1 variants,full inhibition
same,inhibition of nucleotide trapping,MRP1-MDR1 chimeras,full inhibition
COc1ccc2c(c1)c(CC(=O)O)c(C)n2C(=O)c1ccc(Cl)cc1 [indomethacine],efflux of fluorescent dye BCECF,[1],effectively inhibited
CCN1C(=O)CC(SC[C@H](NC(=O)CC[C@H](N)C(=O)O)C(=O)NCC(=O)O)C1=O (stereo partly drawn) [NEM-GS],Km,co-expressed ΔMRP1+L0,~400 µM
same,initial rate of ATP-dependent NEM-GS transport,"MRP1; 50 μM NEM-GS, MRP1 containing membranes",about 250 pmol mg^−1
same,Km,"MRP1; read-out: Km for transport of NEM-GS, wild-type MRP1, Sf9 membrane vesicles",150 µM
